Results as given in patent publication US9115122B2, “Non-ATP dependent inhibitors of extracellular signal-regulated kinase (ERK)” (UNIVERSITY OF MARYLAND, BALTIMORE, priority 2012, dated 2015).

Tests used:
ERK2 L235A = ERK2 L235A (Rattus norvegicus (Rat), UniProt P63086, L235A); assay: Fluorescence quenching (FQ) binding affinity; details: read-out: KD L235A (Site 5)
ERK2 L265A = ERK2 L265A (Rattus norvegicus (Rat), UniProt P63086, L265A); assay: Fluorescence quenching (FQ) binding affinity; details: read-out: KD L265A (Site 4)
Chain of ERK2 L265A (P63086 whole entry L265A): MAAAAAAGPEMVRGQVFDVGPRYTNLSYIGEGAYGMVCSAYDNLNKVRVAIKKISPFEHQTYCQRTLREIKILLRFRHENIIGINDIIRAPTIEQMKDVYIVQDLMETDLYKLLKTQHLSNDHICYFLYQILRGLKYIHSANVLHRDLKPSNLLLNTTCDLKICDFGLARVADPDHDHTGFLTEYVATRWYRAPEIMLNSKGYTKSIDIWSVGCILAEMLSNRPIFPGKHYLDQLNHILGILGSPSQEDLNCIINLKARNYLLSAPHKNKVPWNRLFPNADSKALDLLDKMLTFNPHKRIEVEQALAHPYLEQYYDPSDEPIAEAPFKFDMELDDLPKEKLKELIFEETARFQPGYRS

ERK2 L114A = ERK2 L114A (Rattus norvegicus (Rat), UniProt P63086, L114A); assay: Fluorescence quenching (FQ) binding affinity; details: read-out: KD L114A (Site 2)
Chain of ERK2 L114A (P63086 whole entry L114A): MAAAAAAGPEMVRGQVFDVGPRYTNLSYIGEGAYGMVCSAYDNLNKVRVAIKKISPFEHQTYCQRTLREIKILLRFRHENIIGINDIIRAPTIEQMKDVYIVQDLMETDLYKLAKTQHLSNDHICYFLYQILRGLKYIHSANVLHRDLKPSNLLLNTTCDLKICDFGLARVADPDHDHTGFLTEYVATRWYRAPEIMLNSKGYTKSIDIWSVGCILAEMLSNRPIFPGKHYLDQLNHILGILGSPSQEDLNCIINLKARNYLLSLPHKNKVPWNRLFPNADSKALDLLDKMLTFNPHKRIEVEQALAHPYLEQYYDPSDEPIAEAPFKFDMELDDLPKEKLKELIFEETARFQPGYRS

[1] = test system: c-Fos, Fra1, and FosB expression; assay: Immunoblot of EGF-induced c-Fos, Fra1 and FosB expression in HeLa cells; assay type: cell-based; details: EGF 25 ng/mL
Description: FIG. 3. EGF-mediated induction of AP-1 proteins is inhibited by SF-3-026 and SF-3-030. (a) HeLa cells were treated for 10, 30, or 60 min. with EGF (25 ng/mL) in the presence of 50 μM SF-3-026 or 10 μM U0126. Protein lysates were immunoblotted for c-Fos, Fra1, FosB and FosB2. Phosphorylated ERK1/2 is not affected by SF-3-026 and α-tubulin expression is shown for a protein loading control. (b) Protein lysates from HeLa cells treated for 30 min. with EGF in the absence or presence of 10, 25, 50, or 100 μM of SF-3-026 or SF-3-030 were immunoblotted for c-Fos, Fra1, FosB, FosB2, as well as phosphorylated ERK1/2 and MEK1/2. Total ERK2 and α-tubulin expression are shown for protein loading controls. Data are representative of three independent experiments.
Analysis of protein expression levels, activity, and cell proliferation were done as previously described. […] Proteins were separated by SDS-PAGE, analyzed by immunoblotting, and detected using enhanced chemiluminescence (ECL, GE Healthcare, United Kingdom).
The reported half-life for c-Fos is ˜10 minutes and growth factor-mediated stabilization of c-Fos protein expression can be observed within 30-60 minutes, whereas stabilization of Fra1 protein is delayed due to AP-1 regulation of the Fra1 promoter. Thus, growth factor-mediated induction of c-Fos, Fra1, and FosB expression was evaluated following treatment with SF-3-026. […]

Chain of ERK2 L235A (P63086 whole entry L235A): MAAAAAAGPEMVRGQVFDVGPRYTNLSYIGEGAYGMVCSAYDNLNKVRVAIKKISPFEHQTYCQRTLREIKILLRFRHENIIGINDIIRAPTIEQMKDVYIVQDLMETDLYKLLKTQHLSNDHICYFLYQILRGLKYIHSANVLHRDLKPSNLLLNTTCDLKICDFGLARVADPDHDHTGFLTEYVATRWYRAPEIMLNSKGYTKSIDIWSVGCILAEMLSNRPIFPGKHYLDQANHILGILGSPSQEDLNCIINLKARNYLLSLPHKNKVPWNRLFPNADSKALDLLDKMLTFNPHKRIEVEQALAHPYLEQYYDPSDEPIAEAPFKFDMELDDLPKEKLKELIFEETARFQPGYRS

Kd (ERK2 L235A): 0.09 ± 0.02 µM
Kd (ERK2 L265A): 0.28 µM
Kd (ERK2 L114A): 0.027 ± 0.01 µM
Compound: O=S1(=O)C=CC(OS(=O)(=O)c2ccccc2)C1 (stereo not shown) [SF-3-026]
inhibition of EGF-induced c-Fos, Fra1, and FosB expression [1]: dramatic inhibition
